According to article PMC8022858, “Discovery of bone morphogenetic protein 7-derived peptide sequences that attenuate the human osteoarthritic chondrocyte phenotype” (Molecular Therapy. Methods & Clinical Development, 2021):

System: OA-HACs
Test: sGAG content of OA-HAC cultures (DMB assay)
Format: cell-based, human
Details: three individual OA-HAC donors, 100 nM peptide, 24 h, normalized to total protein (Figure 2D)
Description: Figure 2 Bioactivity of BMP7-derived peptides p[63−82] and p[113−132] on OA-HACs Complete peptide library screening quantitative real-time PCR dataset for peptides p[63−82] and p[113−132] is presented. (A) SOX9, COL2A1, and NKX3-2 mRNA expression in the 18 OA-HAC pool exposed to 1,000, 100, 10, or 1 nM of peptide p[63−82] and p[113−132] is shown and presented relative to control (black bars) and alongside full-length BMP7 (white bars). (B) Similar to (A) but for chondrocyte hypertrophy-associated genes RUNX2, COL10A1, and ALPL. (C) Similar to (A) but for cartilage extracellular matrix remodeling-associated genes MMP13 and ADAMTS5 and inflammation-related genes COX-2 and IL-6. […] (G) In the same OA-HAC pool of 18 OA-HAC donors from the peptide library screening, sequence dependency of peptides p[63−82] and p[113−132] was determined by exposing the OA-HAC pool to scrambled versions of peptides p[63−82] and p[113−132] […] Error bars represent mean ± SEM, and statistical significance for peptide conditions or BMP7 versus control condition as determined by unpaired two-tailed Student’s t test is represented as ∗p < 0.05, ∗∗p < 0.01, and ∗∗∗p < 0.001.
The sGAG content was measured using a modified dimethyl methylene blue (DMB) assay.[58] The absorbance of samples was read at 540 and 595 nm using a spectrophotometer (Multiskan FC; Thermo Fisher Scientific). […]

H-AAYYSEGESAFPLNSYMNAT-OH [p[63−82]] was tested, and the “sulfated glycosaminoglycan (sGAG) content” value was “increased”.
